Marks after values point to notes of the source that are not given here.
Legend:
[1] = tested on: mice; assay: Acute oral toxicity test, maximum limit method; assay type: in vivo; conditions: single dose 5.00 g/kg intragastric, 14 d observation; for Deaths: 10 animals
Procedure: (§1) 1) Animals: Be the same with that of EXAMPLE 4.
3) Method: 20 mice weighing 20±2 g, half male and half female, were divided into 2 groups (n=10) randomly. Animals were administrated with compound 2 or compound 3 at a dose of 5.00 g/kg by intragastric administration after 12 h of fasting (drinking freely). Weigh the mice, observe and record the performance of animals once a day continuously for 14 d.

[2] = tested on: Murine hepatoma H22; assay: Anti-tumor and anti-angiogenesis effects on H22 tumor-bearing mice; assay type: in vivo, mouse; conditions: for IR (%) of tumor growth / Carmine contents / VI (vascular index, mg carmine red per g tumor tissue): H22 mice; for Carmine contents / VI (vascular index, mg carmine red per g tumor tissue): mean ± s; for Inhibition against angiogenesis in H22 tumor (in words) / Inhibition against the growth of mouse hepatoma H22 (in words): ig, tested doses 0.65-1.35 mmol/kg
Source text: 1) Animals: Kunming mice of clean grade, half male and half female, body weight 20±2 g, were purchased from the experimental animal center of Henan Province, China. Qualified Certificate number: SCXK (Yu) 2005-0001.
2) Cells: Murine hepatoma H22 cells were presently obtained from Henan Academy of Medical and Pharmaceutical Sciences (Zhengzhou, China).
Cyclophosphamide (Cyc) was produced by Tianjin Jingshi Pharmaceutical Co., Ltd., China (approval number of medicine: H12021006). Gelatin and carmine red were supplied by Sigma Chemical (St. Louis, Mo., U.S.A). All other chemicals and reagents were of the highest commercial grade available. All drugs were prepared with normal saline emulsified with Tween-80 (0.1% v/v) and dispersed in carboxymethylcellulose (0.5% v/v). 10% (W/V) carmine solution was prepared with salt solution containing 5% (W/V) gelatin which should be used immediately after preparation. The rest of medicines and reagents and the methods for preparation were the same with that of EXAMPLE 1.
4) Method: The H22 cells after in vivo passage for 7 d were diluted with physiological saline to adjust to a concentration of 1×10^7/mL, injected to the armpit of right forelimb of mice subcutaneously (0.2 ml/mouse), then mice were divided into 10 groups (n=12; 6 male and 6 female per group) randomly. 24 h later each group of mice was administrated intragastrically (ig; 0.2 ml/10 g) once a day continuously for 7 d with vehicle (tumor control group and control group), Cyc (standard control), or compounds at the tested doses. After the last drug administration and a following fasting of 8 h, each mouse was anesthetized with 1% pentobarbital in normal saline solution (80 mg/kg; ip). Mice of control group were injected with 5% gelatin in normal saline solution (40) via the tail vein (1 ml/mouse); whereas mice of other groups were injected replaced by 10% carmine red and 5% gelatin in normal saline solution (40). Mice were killed, then freezed in a refrigerator at −20 for 2 h to solidify. Tumors were segregated, weighed and homogenized with 3 M NaOH solution (10 ml/g tumor). The homogenate supernatant was prepared by being centrifuged for 20 min at 14000 rpm, and the absorbance at 490 nm was assayed using a PowerWaveX Microplate Scanning Spectrophotometer (Bio-tek Instruments, Inc). The carmine red content was calculated based on the standard curve. The vascular index (VI) expressed as milligram of carmine red per gram of tumor tissue. The inhibition ratio (IR) of tumor growth was calculated using the formula: IR (%)=[(Wc−Wt)/Wc]×100%, where Wc is the average tumor weight of the control group, and Wt is that of the drug treatment group. Data were expressed as mean±SD and statistical analysis was performed by SPSS Statistics 17.0 using a one-way analysis of variance (ANOVA) followed by unpaired t-test. A value of P<0.05 was considered statistically significant.

[3] = tested on: S180 murine sarcoma; assay: Growth, invasion and metastasis of S180 sarcoma in tumor-bearing mice; assay type: in vivo, mouse; conditions: for Average invasion and metastasis grade: S180, grades 0-4; for Mouse Number Grade 0 / Mouse Number Grade 1 / Mouse Number Grade 2 / Mouse Number Grade 3 / Mouse Number Grade 4: S180 invasion; for Mouse Number Grade 0: Grade 0: no invasion; for Mouse Number Grade 1: Grade 1: invasion to right forelimb; for Mouse Number Grade 2: Grade 2: right forelimb and the left side of body; for Mouse Number Grade 3: Grade 3: also the ribs and muscles in chest; for Mouse Number Grade 4: Grade 4: invasion into chest or abdominal cavity; for In vivo antitumor effect on S180 compared with parent compound (in words) / Inhibitory effect on invasion and metastasis of S180 tumor tissues (in words): ig, tested doses
Procedure: as §1
2) Cells: The S180 murine sarcoma cells were obtained from Henan Academy of Medical and Pharmaceutical Sciences (Zhengzhou, China).
4) Method: Mice were randomly divided into 10 groups (n=12). The S180 cells after in vivo passage for 7 d were diluted with physiological saline to adjust to a concentration of 1×10^7/mL. The inoculation of tumor cells was conducted in two batches, those of tumor control group I and groups treated with compounds 1 or 3 were in batch 1, those of tumor control group II, Cyc group and the compound 2 groups were in batch 2. The mice were injected with S180 cells (0.2 ml/mouse) into the armpit of right forelimb subcutaneously, and 24 h later each group of mice was administrated intragastrically (ig; 0.2 ml/10 g) once a day continuously for 9 d with vehicle (tumor control group), Cyc (standard control), or compounds at the tested doses. On day 10, kill the mice, observe and record the degree of invasion and metastasis of tumor tissues, then the tumor tissues were segregated and weighed. The inhibition ratio (IR) of tumor growth was calculated by the following formula: IR (%)=[(Wc−Wt)/Wc]×100%, where Wc is the average tumor weight of the control group, and Wt is that of the treatment group. Data were expressed as mean±SD and statistical analysis was performed by SPSS Statistics 17.0 using a one-way analysis of variance (ANOVA) followed by unpaired t-test. A value of P<0.05 was considered statistically significant.

[4] = 1.10 mmol/kg (1.10 mmol/g [sic])

Row | Structure (SMILES) | Mortality(%) [1] | Deaths [1] | IR (%) of tumor growth ([2]; 0.65 mmol/kg ig once a day 7 d) | Carmine contents ([2]; 0.65 mmol/kg ig once a day 7 d) | VI (vascular index, mg carmine red per g tumor tissue) ([2]; 0.65 mmol/kg ig once a day 7 d) | IR (%) of tumor growth ([2]; 1.00 mmol/kg ig once a day 7 d) | Carmine contents ([2]; 1.00 mmol/kg ig once a day 7 d) | VI (vascular index, mg carmine red per g tumor tissue) ([2]; 1.00 mmol/kg ig once a day 7 d) | IR (%) of tumor growth ([2]; 1.35 mmol/kg ig once a day 7 d) | Carmine contents ([2]; 1.35 mmol/kg ig once a day 7 d) | VI (vascular index, mg carmine red per g tumor tissue) ([2]; 1.35 mmol/kg ig once a day 7 d) | Inhibition against angiogenesis in H22 tumor (in words) [2] | Inhibition against the growth of mouse hepatoma H22 (in words) [2] | IR (%) of S180 sarcoma growth ([3]; 0.60 mmol/kg ig once a day 9 d) | IR (%) of S180 sarcoma growth ([3]; 0.85 mmol/kg ig once a day 9 d) | IR (%) of S180 sarcoma growth ([3]; 1.10 mmol/kg ig once a day 9 d) | Average invasion and metastasis grade ([3]; 0.60 mmol/kg) | Average invasion and metastasis grade ([3]; 0.85 mmol/kg) | Average invasion and metastasis grade [3, 4] | Mouse Number Grade 0 ([3]; 0.60 mmol/kg) | also measured
1 | C=C1CCC2C(C)(COC(=O)c3cccnc3)C(OC(=O)c3cccnc3)CCC2(C)C1C=CC1=CC(=Cc2ccc(Cl)cc2)OC1=O (centres unmarked) [Compound 3, 15-p-chlorobenzylidene-14-deoxy-11,12-didehydro-3,19-dinicotinate andrographolide] | 0% | 0 | 37.89* % | 2.26 ± 1.97*^Δ | 3.60 ± 1.86*^Δ mg/g | 41.26*^ΔΔ % | 1.88 ± 1.26**^ΔΔ | 3.30 ± 1.43*^Δ mg/g | 49.27**^ΔΔ % | 2.14 ± 1.42*^Δ | 3.88 ± 1.40 mg/g | significant inhibition | significant inhibition | 18.89 ± 3.68 % | 20.21 ± 4.37 % | 24.44 ± 6.30 % | 1.08 | 1.25 | 0.42 | 4 | Toxic symptoms observed [1]: No apparent toxic symptoms; IR (%) of S180 sarcoma growth ([3]; 1.35 mmol/kg ig once a day 9 d): 31.21 ± 5.96**^Δ %; Mouse Number Grade 0 ([3]; 0.85 mmol/kg): 5; Mouse Number Grade 0 [3, 4]: 8; Mouse Number Grade 1 ([3]; 0.60 mmol/kg): 5; Mouse Number Grade 1 ([3]; 0.85 mmol/kg): 2; Mouse Number Grade 1 [3, 4]: 3; Mouse Number Grade 2 ([3]; 0.60 mmol/kg): 1; Mouse Number Grade 2 ([3]; 0.85 mmol/kg): 2; Mouse Number Grade 2 [3, 4]: 1; Mouse Number Grade 3 ([3]; 0.60 mmol/kg): 2; Mouse Number Grade 3 ([3]; 0.85 mmol/kg): 3; Mouse Number Grade 3 [3, 4]: 0; Mouse Number Grade 4 ([3]; 0.60 mmol/kg): 0; Mouse Number Grade 4 ([3]; 0.85 mmol/kg): 0; Mouse Number Grade 4 [3, 4]: 0; In vivo antitumor effect on S180 compared with parent compound (in words) [3]: significantly stronger than that of the parent compound; Inhibitory effect on invasion and metastasis of S180 tumor tissues (in words) [3]: strong inhibitory effect
2 | C=C1CCC2C(C)(CO)C(O)CCC2(C)C1C=CC1=CC(=Cc2ccc(Cl)cc2)OC1=O (centres unmarked) [Compound 2, 15-p-chlorobenzylidene-14-deoxy-11,12-didehydro-andrographolide] | 0% | 0 | 15.69% | 4.63 ± 2.93 | 4.42 ± 1.58 mg/g | 49.63**^ΔΔ % | 2.59 ± 1.68*^Δ | 3.89 ± 0.89 mg/g | 50.37**^ΔΔ % | 1.90 ± 1.39**^ΔΔ | 3.14 ± 1.69*^Δ mg/g | significant inhibition | significant inhibition | 30.12 ± 8.00 % | 53.38 ± 6.83**^ΔΔ % | 45.16 ± 5.58**^ΔΔ % | 2.00 | 0.00 | 0.00 | 0 | Mouse Number Grade 0 ([3]; 0.85 mmol/kg): 12; Mouse Number Grade 0 [3, 4]: 12; Mouse Number Grade 1 ([3]; 0.60 mmol/kg): 0; Mouse Number Grade 1 ([3]; 0.85 mmol/kg): 0; Mouse Number Grade 1 [3, 4]: 0; Mouse Number Grade 2 ([3]; 0.60 mmol/kg): 12; Mouse Number Grade 2 ([3]; 0.85 mmol/kg): 0; Mouse Number Grade 2 [3, 4]: 0; Mouse Number Grade 3 ([3]; 0.60 mmol/kg): 0; Mouse Number Grade 3 ([3]; 0.85 mmol/kg): 0; Mouse Number Grade 3 [3, 4]: 0; Mouse Number Grade 4 ([3]; 0.60 mmol/kg): 0; Mouse Number Grade 4 ([3]; 0.85 mmol/kg): 0; Mouse Number Grade 4 [3, 4]: 0; In vivo antitumor effect on S180 compared with parent compound (in words) [3]: significantly stronger than that of the parent compound; Inhibitory effect on invasion and metastasis of S180 tumor tissues (in words) [3]: strong inhibitory effect

From US9198894B2, “Uses of 15-benzylidene-14-deoxy-11,12-didehydroandrographolide derivatives in the preparation of antineoplastic drugs” (Zhengzhou University, priority 2010, dated 2015)
